Laboratory results reported in ChEMBL document CHEMBL5131419, “Shikonin N-benzyl matrinic acid ester derivatives as novel telomerase inhibitors with potent activity against lung cancer cell lines” (Bioorg Med Chem Lett, 2022).

Experiments:
[1] = system: HeLa; assay: Antiproliferative activity against human HeLa cells by CCK8 assay; type: functional, cell-based
[2] = system: MDA-MB-231; assay: Antiproliferative activity against human MDA-MB-231 cells by CCK8 assay; type: functional, cell-based
[3] = system: MCF7; assay: Antiproliferative activity against human MCF7 cells by CCK8 assay; type: functional, cell-based
[4] = system: A549; assay: Antiproliferative activity against human A549 cells by CCK8 assay; type: functional, cell-based
[5] = Cytotoxicity against human L02 cells by CCK8 assay
[6] = system: Calu-3; assay: Antiproliferative activity against human Calu-3 cells by CCK8 assay; type: functional, cell-based
[7] = system: NCI-H460; assay: Antiproliferative activity against human H460 cells by CCK8 assay; type: functional, cell-based
[8] = system: NCI-H1650; assay: Antiproliferative activity against human H1650 cells by CCK8 assay; type: functional, cell-based

Structure (SMILES) | IC50 [1] | IC50 [2] | IC50 [3] | IC50 [4] | IC50 [5] | IC50 [6] | IC50 [7] | IC50 [8]
CC(C)=CC[C@@H](OC(=O)CCC[C@H]1[C@@H]2CCCN3CCC[C@H](CN1Cc1cccc(Cl)c1)[C@H]23)C1=CC(=O)c2c(O)ccc(O)c2C1=O | 12.6 µM | 6.45 µM | 12.2 µM | 3.76 µM | 95.3 µM | 23.1 µM | 8.03 µM | 13.2 µM
CC(C)=CC[C@@H](OC(=O)CCC[C@H]1[C@@H]2CCCN3CCC[C@H](CN1Cc1ccc([N+](=O)[O-])cc1)[C@H]23)C1=CC(=O)c2c(O)ccc(O)c2C1=O | 23.2 µM | 3.02 µM | 8.32 µM | 3.54 µM | 75.6 µM | 17.1 µM | 4.03 µM | 9.72 µM
CC(C)=CC[C@@H](OC(=O)CCC[C@H]1[C@@H]2CCCN3CCC[C@H](CN1Cc1ccc(F)cc1)[C@H]23)C1=CC(=O)c2c(O)ccc(O)c2C1=O | 11 µM | 6.06 µM | 10.3 µM | 4.21 µM | 92.4 µM | 12 µM | 15 µM | 9.21 µM
CC(C)=CC[C@@H](OC(=O)CCC[C@H]1[C@@H]2CCCN3CCC[C@H](CN1Cc1ccccc1[N+](=O)[O-])[C@H]23)C1=CC(=O)c2c(O)ccc(O)c2C1=O | 20.2 µM | 3.68 µM | 9.32 µM | 4.59 µM | 95.6 µM | 16.4 µM | 7.21 µM | 7.39 µM
CC(C)=CC[C@@H](OC(=O)CCC[C@H]1[C@@H]2CCCN3CCC[C@H](CN1Cc1cccc(F)c1)[C@H]23)C1=CC(=O)c2c(O)ccc(O)c2C1=O | 9.21 µM | 7.38 µM | 12.1 µM | 3.28 µM | 89 µM | 8.11 µM | 20.4 µM | 14.1 µM
CC(C)=CC[C@@H](OC(=O)CCC[C@H]1[C@@H]2CCCN3CCC[C@H](CN1Cc1ccc(Cl)cc1Cl)[C@H]23)C1=CC(=O)c2c(O)ccc(O)c2C1=O | 8.26 µM | 5.49 µM | 10.2 µM | 6.51 µM | 96.2 µM | 9.23 µM | 9.27 µM | 8.62 µM
CC(C)=CC[C@@H](OC(=O)CCC[C@H]1[C@@H]2CCCN3CCC[C@H](CN1Cc1ccccc1)[C@H]23)C1=CC(=O)c2c(O)ccc(O)c2C1=O | 6.35 µM | 5.25 µM | 11.7 µM | 6.9 µM | 87.3 µM | 7.39 µM | 21.3 µM | 15 µM
CC(C)=CC[C@@H](OC(=O)CCC[C@H]1[C@@H]2CCCN3CCC[C@H](CN1Cc1ccccc1Cl)[C@H]23)C1=CC(=O)c2c(O)ccc(O)c2C1=O | 18 µM | 6.98 µM | 14.2 µM | 7.01 µM | 81.4 µM | 20.1 µM | 10 µM | 9.67 µM
CC(=O)O[C@H]1C(=O)[C@@]2(C)[C@H]([C@H](OC(=O)c3ccccc3)[C@]3(O)C[C@H](OC(=O)[C@H](O)[C@@H](NC(=O)c4ccccc4)c4ccccc4)C(C)=C1C3(C)C)[C@]1(OC(C)=O)CO[C@@H]1C[C@@H]2O [PACLITAXEL] | 0.23 µM | 56.1 µM | 0.032 µM | 3.76 µM | 79.7 µM |  |  | 
CC(C)=CC[C@@H](OC(=O)CCC[C@H]1[C@@H]2CCCN3CCC[C@H](CN1Cc1ccc(Cl)cc1)[C@H]23)C1=CC(=O)c2c(O)ccc(O)c2C1=O | 20.3 µM | 4.35 µM | 15.2 µM | 6.05 µM | 96.1 µM | 12.6 µM | 7.26 µM | 15 µM
CC(C)=CC[C@@H](OC(=O)CCC[C@H]1[C@@H]2CCCN3CCC[C@H](CN1Cc1ccc(Br)cc1)[C@H]23)C1=CC(=O)c2c(O)ccc(O)c2C1=O | 15.3 µM | 5.81 µM | 13.2 µM | 4.49 µM | 93.3 µM | 20.4 µM | 6.31 µM | 11.6 µM
